Values quoted from earlier work as cited in patent US10799486B2 (NORTIC HOLDINGS INC., priority 2016, dated 2020).

Key:
[1] = oral administration
[2] = nimodipine-treated subarachnoid hemorrhage (SAH) patients

## COCCOC(=O)C1=C(C)NC(C)=C(C(=O)OC(C)C)C1c1cccc([N+](=O)[O-])c1 (stereo not drawn) [nimodipine, isopropyl 2-methoxyethyl 1,4-dihydro-2,6-dimethyl-4-(m-nitrophenyl)-3,5-pyridinedicarboxylate]
[1]; man
  half-life equivalent to earlier elimination rates: 1 to 2 h
[1]; hepatic cirrhosis
  Cmax in patients with hepatic cirrhosis versus normal: approximately double that in normal
[2]
  concentration detected in the cerebrospinal fluid: ≤ 12.5 ng/mL
